From US8513232B2, “Substituted spirocyclic piperidine derivatives as histamine-3 (H3) receptor ligands” (Cephalon, Inc., priority 2008, dated 2013)
Read-outs that look alike come from different tables or passages of the source.

Columns and labels:
human H3 receptor = target: T1, human H3 receptor (Homo sapiens, UniProt Q9Y5N1); assay: Human H3 radioligand binding ([3H]-N-alpha-methylhistamine, SPA)
T1 construct: expressed in transfected cells
Summary of the method: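 Compounds (0.01 nM-30 μM) competed with approximately 1 nM [3H]-N-alpha-methylhistamine for human H3 receptor in membranes of stably transfected CHO cells, 10 μg protein per well, in Tris-HCl pH 7.4/MgCl2/BSA buffer for 4 h at room temperature. Bound radioligand measured by scintillation proximity; 10 μM clobenpropit gave non-specific binding.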

[1] = target: T2, rat histamine H3 receptor (Rattus norvegicus, UniProt Q9QYN8); assay: Rat H3 radioligand binding ([3H]-N-alpha-methylhistamine, SPA)
T2 construct: encoding the entire 445-amino-acid rat histamine H3 receptor; expressed in transfected cells; membrane preparation
T2 sequence (Q9QYN8 whole entry): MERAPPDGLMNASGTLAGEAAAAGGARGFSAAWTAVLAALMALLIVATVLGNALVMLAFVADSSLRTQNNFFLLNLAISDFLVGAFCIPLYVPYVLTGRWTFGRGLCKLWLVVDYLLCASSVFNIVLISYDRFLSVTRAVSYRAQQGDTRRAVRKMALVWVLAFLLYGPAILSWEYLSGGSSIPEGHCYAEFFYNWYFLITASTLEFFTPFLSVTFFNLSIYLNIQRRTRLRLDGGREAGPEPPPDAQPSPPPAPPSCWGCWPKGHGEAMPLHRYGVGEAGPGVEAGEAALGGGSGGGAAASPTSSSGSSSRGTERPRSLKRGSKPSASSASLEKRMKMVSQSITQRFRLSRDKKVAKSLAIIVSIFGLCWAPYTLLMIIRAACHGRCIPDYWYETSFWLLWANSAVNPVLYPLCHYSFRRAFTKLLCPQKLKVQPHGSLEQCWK
Summary of the method: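 SPA-bead binding assay using [3H]-N-alpha-methylhistamine (approximately 1 nM final) with test compounds from 0.01 nM to 30 μM. Rat H3 receptor membranes came from stably transfected CHO-A3 cells; incubation ran 4 h at room temperature, in the dark, in Tris pH 7.4 buffer with MgCl2 and BSA. Clobenpropit (10 μM) gave non-specific binding.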

[2] = human H3 binding, Table D, read-out: Human H3 Ki
[3] = rat H3 binding, Table D, read-out: Rat H3 Ki
[4] = Human H3 binding, Table B, Examples 136-362, read-out: hum H3 binding Ki
[5] = Rat H3 binding, Table B, Examples 136-362, read-out: rat H3 binding Ki
[6] = Table C, human H3 binding, read-out: Human H3 Ki
[7] = Table C, rat H3 binding, read-out: Rat H3 Ki
[8] = Table A, human H3 binding, read-out: Human Ki
[9] = Table A, rat H3 binding, read-out: Rat Ki

T1 sequence (Q9Y5N1 whole entry): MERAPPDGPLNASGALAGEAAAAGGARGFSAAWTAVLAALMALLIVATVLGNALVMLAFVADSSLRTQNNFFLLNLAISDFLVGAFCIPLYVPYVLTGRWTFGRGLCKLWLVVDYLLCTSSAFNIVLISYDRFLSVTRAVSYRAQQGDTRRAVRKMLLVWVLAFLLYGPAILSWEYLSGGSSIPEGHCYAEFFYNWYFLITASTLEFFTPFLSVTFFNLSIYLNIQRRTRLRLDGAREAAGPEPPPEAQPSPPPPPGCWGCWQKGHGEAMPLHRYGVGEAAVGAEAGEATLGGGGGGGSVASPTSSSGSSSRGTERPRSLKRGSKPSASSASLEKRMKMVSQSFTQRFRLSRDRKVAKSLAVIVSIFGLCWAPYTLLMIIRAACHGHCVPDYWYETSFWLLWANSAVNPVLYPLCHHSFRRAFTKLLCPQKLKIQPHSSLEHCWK

SMILES | Ki (human H3 receptor; [2]) [nM] | Ki [1, 3] [nM] | melting point | Ki (human H3 receptor; [4]) [nM] | Ki [1, 5] [nM] | further results
Cc1noc(C2CCN(c3ccc4c(c3)COC3(CCN(C5CCC5)CC3)O4)CC2)n1 [Example 628] | < 200 | < 200 | 125 to 126.2 °C |  |  | 
Cc1noc(CCc2ccc3c(c2)COC2(CCN(C4CCC4)CC2)O3)n1 [Example 676] | < 200 | < 200 | 74 to 76 °C |  |  | 
CNC(=O)c1ccc(-c2ccc3c(c2)CCC2(CCN(C4CCC4)CC2)O3)nc1 [Example 595] | < 200 | < 200 | 192 to 194 °C |  |  | 
CCSc1cc(-c2ccc3c(c2)COC2(CCN(C4CCC4)CC2)O3)c[nH]c1=O [Example 728] | < 200 | < 200 | 241 to 243 °C |  |  | 
O=C(Cc1ccccn1)Nc1ccc2c(c1)COC1(CCN(C3CCC3)CC1)O2 [Example 322] |  |  | 166 to 168 °C | < 200 | < 200 | 
CC(=O)N1CCC(Oc2ccc3c(c2)CCC2(CCN(C4CCC4)CC2)O3)CC1 [Example 426] |  |  | 227 to 229 °C |  |  | Ki (human H3 receptor; [6]): < 200 nM; Ki [1, 7]: < 200 nM
O=C1OCCN1c1ccc2c(c1)CCC1(CCN(C3CCC3)CC1)O2 [Example 119] |  |  | 186 to 188 °C |  |  | Ki (human H3 receptor; [8]): < 200 nM; Ki [1, 9]: < 200 nM
CNC(=O)c1ccc(-c2ccc3c(c2)CCC2(CCN(C4CCC4)CC2)O3)cc1C [Example 237] |  |  | 94.7 to 95.6 °C | < 200 | < 200 | 
c1ccc(OC2CCN(c3ccc4c(c3)CCC3(CCN(C5CCC5)CC3)O4)CC2)cc1 [Example 432] |  |  | > 265 °C (dec.) |  |  | Ki (human H3 receptor; [6]): < 200 nM; Ki [1, 7]: < 200 nM
O=c1ccc(-c2ccc3c(c2)COC2(CCN(C4CCC4)CC2)O3)c[nH]1 [Example 168] |  |  | 145 to 147 °C | < 200 | < 200 | 
COCCn1cc(-c2ccc3c(c2)COC2(CCN(C4CCC4)CC2)O3)ccc1=O [Example 708] | < 200 | < 200 | 141 to 142 °C |  |  | 
CNC(=O)c1ccc(-c2ccc3c(c2)CCC2(CCN(C4CCC4)CC2)O3)cn1 [Example 156] |  |  | 67 to 69 °C | < 200 | < 200 | 
O=C(c1ccc(-c2ccc3c(c2)CCC2(CCN(C4CCC4)CC2)O3)cc1)N1CCC(O)CC1 [Example 206] |  |  | 90.4 to 92.6 °C | < 200 | < 200 | 
O=C(c1ccc(-c2ccc3c(c2)COC2(CCN(C4CCC4)CC2)O3)cc1)N1CC[C@H](O)C1 [Example 148] |  |  | 178 to 181 °C | < 200 | < 200 | 
CCN(CC)C(=O)N1CCN(c2ccc3c(c2)CCC2(CCN(C4CCC4)CC2)O3)CC1 [Example 394] |  |  | 272 to 274 °C |  |  | Ki (human H3 receptor; [6]): < 200 nM; Ki [1, 7]: < 200 nM
CCNC(=O)N1CCN(c2ccc3c(n2)COC2(CCN(C4CCC4)CC2)O3)CC1 [Example 254] |  |  | 122 to 124 °C | < 200 | < 200 | 
O=S(=O)(C1CC1)N1CCC(Oc2ccc3c(c2)CCC2(CCN(C4CCC4)CC2)O3)CC1 [Example 437] |  |  | 233 to 235 °C |  |  | Ki (human H3 receptor; [6]): < 200 nM; Ki [1, 7]: < 200 nM
CC(C)OCCNC(=O)c1ccc(-c2ccc3c(c2)COC2(CCN(C4CCC4)CC2)O3)cc1 [Example 311] |  |  | 155.5 to 157.3 °C | < 200 | < 200 | 
CN(C)C(=O)c1cn(-c2ccc3c(c2)COC2(CCN(C4CCC4)CC2)O3)c2ccccc12 [Example 83] |  |  | 100 to 110 °C |  |  | Ki (human H3 receptor; [8]): < 200 nM; Ki [1, 9]: < 200 nM
O=C(c1ccccc1Nc1ccc2c(c1)COC1(CCN(C3CCC3)CC1)O2)N1CCOCC1 [Example 159] |  |  | 60 to 63 °C | < 200 | 200 to 1000 | 

SMILES | Ki (human H3 receptor; [2]) [nM] | Ki [1, 3] [nM] | melting point | Ki (human H3 receptor; [4]) [nM] | Ki [1, 5] [nM] | further results
O=C(NCCO)c1ccc(-c2cc(F)c3c(c2)COC2(CCN(C4CCC4)CC2)O3)cc1 [Example 141] |  |  | 145 to 147 °C | < 200 | < 200 | 
COc1cc(C(=O)NC2CCOCC2)ccc1-c1ccc2c(c1)COC1(CCN(C3CCC3)CC1)O2 [Example 688] | < 200 | < 200 | 100 to 102 °C |  |  | 
O=C1CCN(C(=O)c2ccc(-c3ccc4c(c3)CCC3(CCN(C5CCC5)CC3)O4)cc2)CC1 [Example 197] |  |  | 82.9 to 84.3 °C |  |  | Ki (human H3 receptor): < 200 nM; Ki [1]: < 200 nM
O=C(C1CCN(c2ccc3c(c2)COC2(CCN(C4CCC4)CC2)O3)CC1)N1CCOCC1 [Example 468] |  |  | 282 to 284 °C |  |  | Ki (human H3 receptor; read-out: Human H3 Ki): < 200 nM; Ki ([1]; read-out: Rat H3 kI): < 200 nM
O=C(N[C@H]1CCOC1)c1ccc(-c2ccc3c(c2)COC2(CCN(C4CCC4)CC2)O3)cc1 [Example 600] | < 200 | < 200 | 205 to 207 °C |  |  | 
O=C(Nc1ccc2c(c1)CCC1(CCN(C3CCC3)CC1)O2)c1cnnc2ccccc12 [Example 265] |  |  | 233 to 235 °C |  |  | Ki (human H3 receptor): < 200 nM; Ki [1]: < 200 nM
CC(C)C(=O)N1CCC(Oc2ccc3c(c2)CCC2(CCN(C4CCC4)CC2)O3)CC1 [Example 427] |  |  | 239 to 241 °C |  |  | Ki (human H3 receptor; [6]): < 200 nM; Ki [1, 7]: < 200 nM
c1cn2cc(-c3ccc4c(c3)COC3(CCN(C5CCC5)CC3)O4)ccc2n1 [Example 19] |  |  | 64.5 to 66 °C |  |  | Ki (human H3 receptor; [8]): < 200 nM; Ki [1, 9]: < 200 nM
COc1ccnc(-c2ccc3c(c2)COC2(CCN(C4CCC4)CC2)O3)n1 [Example 483] |  |  | 100 to 102 °C |  |  | Ki (human H3 receptor; read-out: Human H3 Ki): < 200 nM; Ki ([1]; read-out: Rat H3 kI): < 200 nM
CC(=O)N(Cc1ccsc1)c1ccc2c(c1)COC1(CCN(C3CCC3)CC1)O2 [Example 352] |  |  | 101 to 102 °C | < 200 | < 200 | 
Cc1nnc(COc2ccc3c(c2)CCC2(CCN(C4CCC4)CC2)O3)o1 [Example 615] | < 200 | < 200 | 97 to 98 °C |  |  | 
Clc1ccc(COc2ccc3c(c2)CCC2(CCN(C4CCC4)CC2)O3)cc1 [Example 288] |  |  | 115 to 116 °C | < 200 | < 200 | 
OC(c1ccc2c(c1)COC1(CCN(C3CCC3)CC1)O2)c1cncs1 (stereo not drawn) [Example 669] | < 200 | < 200 | 72 to 75 °C |  |  | 
CN(C)C(=O)CC1CCN(c2ccc3c(c2)COC2(CCN(C4CCC4)CC2)O3)CC1 [Example 586] | < 200 | < 200 | 68.5 to 70.2 °C |  |  | 
CCC(=O)N1CCN(c2ccc3c(c2)COC2(CCN(C4CCC4)CC2)O3)C(=O)C1 [Example 739] | < 200 | < 200 | 146 to 148 °C |  |  | 
CNC(=O)c1cn(-c2ccc3c(c2)COC2(CCN(C4CCC4)CC2)O3)cc1C [Example 86] |  |  | 149 to 153 °C |  |  | Ki (human H3 receptor; [8]): < 200 nM; Ki [1, 9]: < 200 nM
COc1ccc(Cc2ccc3c(c2)COC2(CCN(C4CCC4)CC2)O3)cn1 [Example 516] |  |  | 229 to 231 °C |  |  | Ki (human H3 receptor; read-out: Human H3 Ki): < 200 nM; Ki ([1]; read-out: Rat H3 kI): < 200 nM
CC(C)Oc1cc(-c2ccc3c(c2)COC2(CCN(C4CCC4)CC2)O3)c(Cl)cn1 [Example 780] | < 200 | < 200 | 131 to 132 °C |  |  | 
CCc1cc(=O)[nH]cc1-c1ccc2c(c1)COC1(CCN(C3CCC3)CC1)O2 [Example 803] | < 200 | < 200 | 107 to 109 °C |  |  | 
